Data reported in patent US20190270778A1, “Cyclic Peptides As C5a Receptor Antagonists” (priority 2016, published 2019).
Read-outs that look alike come from different tables or passages of the source.

How the values were obtained:
[1] = amide bond, 18-membered ring
C5a receptor [2] = molecular target: T1, C5a receptor (Homo sapiens, UniProt P21730); experiment: HWB oxidative burst assay (C5a-induced, luminol chemiluminescence); type: cell-based
T1 construct: endogenous in cells; host or cells: leukocytes/granulocytes in freshly drawn whole blood of healthy volunteers
T1 sequence (P21730 1-350): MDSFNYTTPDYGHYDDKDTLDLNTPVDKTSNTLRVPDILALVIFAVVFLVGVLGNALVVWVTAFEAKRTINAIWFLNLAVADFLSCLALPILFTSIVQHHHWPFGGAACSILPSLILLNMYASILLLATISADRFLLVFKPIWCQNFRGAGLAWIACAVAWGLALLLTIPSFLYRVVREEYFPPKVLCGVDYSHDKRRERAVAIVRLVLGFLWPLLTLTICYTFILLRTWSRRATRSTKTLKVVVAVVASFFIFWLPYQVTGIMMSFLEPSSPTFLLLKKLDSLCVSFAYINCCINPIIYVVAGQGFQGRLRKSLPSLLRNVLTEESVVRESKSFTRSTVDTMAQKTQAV
Description: Inhibition of oxidative burst activity was determined in HWB primed with TNF-α and stimulated with C5a. C5a-induced oxidative burst response (generation of reactive oxygen species) was then detected in the presence of luminol as a chemiluminescent signal.
On the day of assay, HWB was collected from a healthy, non-medicated volunteer into tubes containing 3.8% sodium citrate (final sodium citrate concentration in HWB is 0.38%) and stored in a 37° C. water bath until use (no longer than 60 minutes).
To start the assay, TNF-α was added to HWB to a final concentration of 1.0 nM and 68 μL of this HWB/TNF-α mix was transferred to each well of a 384-well white Optiplate (assay plate). 4.0 μL of various concentrations of test agent were then added to the assay plate and mixed twice gently by aspirating up and down. The assay plate was then placed on a thermoshaker (JITTERBUG-4) and incubated at 37° C. (without shaking). After 60 minutes, C5a (Complement Technology) prepared in luminol (Sigma) was added to the assay plate and mixed twice gently by aspirating up and down. The plate was then placed in a ViewLux 1430 Microplate Imager (Perkin Elmer). After 5 minutes, oxidative burst activity was determined with the ViewLux by measuring luminol-enhanced whole blood chemiluminescence. Final assay conditions were 1.5 mM HEPES pH 7.5, 0.015% BSA, 15% HBSS, 0.85 ng/mL TNFα, 1.0 mM Luminol, C5a 20 nM, 76.5% HWB, 0.15% DMSO and various concentrations of test agent.
The percent (%) effect at each concentration of test agent was then calculated based on and relative to the amount of signal that was produced by positive (i.e. full inhibition of C5a induced oxidative burst) and negative (i.e. completely uninhibited C5a induced oxidative burst) control wells contained within each assay plate. The concentration and % effect values for test agents were plotted and the concentration of test agent required for 50% effect (IC50) was determined with a four-parameter logistic dose response equation (BioBook; IDBS). Kb (nM) was then calculated (BioBook; IDBS) using the equation described by Leff and Dougal (TIPS 1993 14:110-112).

C5a receptor [3] = molecular target: T1, C5a receptor; experiment: HWB CD11b expression assay (C5a-challenged granulocytes, flow cytometry); type: cell-based
Description: HWB was collected from healthy, non-medicated volunteers into BD Vacutainer® blood collection tubes with K2EDTA as an anticoagulant. HWB was aliquoted (85 μL/well) in 96-well, deep-well, V-bottom plates and incubated at 37° C. for 30 minutes. Test compounds (5 μL/well) were added to HWB and incubated at 37° C. for 30 minutes. Anti-human CD11b antibody conjugated with APC (BD Biosciences) was added to HWB (5 μL/well) and incubated at 37° C. for additional 30 minutes. HWB was then challenged with human C5a (final 1 nM) for 30 minutes at 37° C. Samples were treated with warm 1× Lyse/Fix buffer (BD Biosciences) to terminate activation and further incubated at 37° C. for 20 minutes to lyse red blood cells. Assay plates were centrifuged at 300×g for 5 minutes, supernatant was aspirated, and cells were washed once with PBS containing 0.5% FBS. Washed cells were resuspended in PBS containing 0.5% FBS and subjected to flow cytometric analysis using an LSRFortessa equipped with a HTS plate loader (BD Biosciences). The granulocyte population was gated for analysis of MF of CD11b staining using FACSDiva version 6.2 (BD Biosciences). Data from 11 compound concentrations (singlicate at each concentration) was normalized as a percentage of control based on the formula:
% of Control=100×(A−B)/(C−B)
where A is MF from wells containing test compound and C5a, B is MF from wells without C5a (background MF from unstimulated samples) and C is MF from wells containing only C5a (maximum MF). Inhibition curves and IC50 values (test compound concentrations which produce 50% inhibition) were determined using the Prism version 5 software (GraphPad). HWB was also stimulated with 11 different concentrations of C5a to construct a responsive curve and to obtain EC50 value (the concentration of C5a that gives half-maximal response) and curve slope using the Prism version 5 software. Kb (nM) was then calculated using the equation described by Leff and Dougal (TIPS 1993 14:110-112).

Molecule | Kb (C5a receptor [2]) [nM] | Kb (C5a receptor [3]) [nM] | also measured
H-Hyp(tBu)-dAla(3-(cis-4-hydroxycyclohexyl))-Ala(3-(4-methyl-1H-pyrazol-1-yl))-Arg(Pbf)-Orn(Nα-[Boc-N(CH2CO2tBu)-Phe]; chain through Nδ)-OH |  |  | ring closure, crude yield ([1]; the molecule shown is the open-chain precursor): 48%
tert-butyl-3-(((3R,6S,9S,15S,19R,20aS)-19-(tert-butoxy)-15-((tert-butoxycarbonyl)amino)-3-(((1s,4S)-4-hydroxycyclohexyl)methyl)-1,4,7,10,16-pentaoxo-9-(3-(3-((2,2,4,6,7-pentamethyl-2,3-dihydrobenzofuran-5-yl)sulfonyl)guanidino)propyl)icosahydropyrrolo[1,2-a][1,4,7,10,13]pentaazacyclooctadecin-6-yl)methyl)-1H-indole-1-carboxylate |  |  | ring closure, crude yield ([1]; HATU/NMM, THF/DMF 10:1, 13.1 mM): 95.3%
N=C(N)NCCC[C@@H]1NC(=O)[C@H](Cc2c[nH]c3ncccc23)NC(=O)[C@@H](C[C@H]2CC[C@@H](O)CC2)NC(=O)[C@@H]2CCCN2C(=O)[C@@H](NC(=O)[C@H](Cc2ccccc2)NCC(=O)O)CCCNC1=O [Example 5, ((S)-1-(((3R,6S,9S,15S,20aS)-6-((1H-pyrrolo[2,3-b]pyridin-3-yl)methyl)-9-(3-guanidinopropyl)-3-(((1s,4S)-4-hydroxycyclohexyl)methyl)-1,4,7,10,16-pentaoxoicosahydropyrrolo[1,2-a][1,4,7,10,13]pentaazacyclooctadecin-15-yl)amino)-1-oxo-3-phenylpropan-2-yl)glycine] |  |  | Kb (C5a receptor [2]; human whole blood primed with TNF-α, stimulated with C5a 20 nM, Kb calculated from IC50 (Leff and Dougal), read-out: Oxidative burst, Kb): 27.3 nM; Kb (C5a receptor [3]; human whole blood challenged with human C5a 1 nM, granulocyte CD11b mean fluorescence, Kb calculated from IC50 (Leff and Dougal), read-out: CD11b, Kb): 300 nM
N=C(N)NCCC[C@@H]1NC(=O)[C@H](Cc2c[nH]c3ccccc23)NC(=O)[C@@H](C[C@H]2CC[C@@H](O)CC2)NC(=O)[C@@H]2C[C@H](NCC(=O)O)CN2C(=O)[C@@H](NC(=O)[C@H](Cc2ccccc2)NCC(=O)O)CCCNC1=O [Example 12, ((31R,6S,9S,15S,19S,20aS)-6-((1H-indol-3-yl)methyl)-15-((S)-2-((carboxymethyl)amino)-3-phenylpropanamido)-9-(3-guanidinopropyl)-3-(((1s,4S)-4-hydroxycyclohexyl)methyl)-1,4,7,10,16-pentaoxoicosahydropyrrolo[1,2-a][1,4,7,10,13]pentaazacyclooctadecin-19-yl)glycine] | 1.3 | 32.6 | 
Cc1cnn(C[C@@H]2NC(=O)[C@@H](C[C@H]3CC[C@@H](O)CC3)NC(=O)[C@@H]3C[C@@H](O)CN3C(=O)[C@@H](NC(=O)[C@H](Cc3ccccc3)NCC(=O)O)CCCNC(=O)[C@H](CCCNC(=N)N)NC2=O)c1 [Example 3, ((S)-1-(((3R,6S,9S,15S,19R,20aS)-9-(3-guanidinopropyl)-19-hydroxy-3-(((1s,4S)-4-hydroxycyclohexyl)methyl)-6-((4-methyl-1H-pyrazol-1-yl)methyl)-1,4,7,10,16-pentaoxoicosahydropyrrolo[1,2-a][1,4,7,10,13]pentaazacyclooctadecin-15-yl)amino)-1-oxo-3-phenylpropan-2-yl)glycine] | 21.6 | 212 | 
CC(=O)N[C@@H]1C[C@H]2C(=O)N[C@H](C[C@H]3CC[C@@H](O)CC3)C(=O)N[C@@H](Cc3c[nH]c4ccccc34)C(=O)N[C@@H](CCCNC(=N)N)C(=O)NCCC[C@H](NC(=O)[C@H](Cc3ccccc3)NCC(=O)O)C(=O)N2C1 [Example 9, ((S)-1-(((3R,6S,9S,15S,19R,20aS)-6-((1H-indol-3-yl)methyl)-19-acetamido-9-(3-guanidinopropyl)-3-(((1s,4S)-4-hydroxycyclohexyl)methyl)-1,4,7,10,16-pentaoxoicosahydropyrrolo[1,2-a][1,4,7,10,13]pentaazacyclooctadecin-15-yl)amino)-1-oxo-3-phenylpropan-2-yl)glycine] | 1 | 32.6 | 
CCc1ccc2c(C[C@@H]3NC(=O)[C@@H](C[C@H]4CC[C@@H](O)CC4)NC(=O)[C@@H]4C[C@@H](O)CN4C(=O)[C@@H](NC(=O)[C@H](Cc4ccccc4)NCC(=O)O)CCCNC(=O)[C@H](CCCNC(=N)N)NC3=O)c[nH]c2c1 [Example 17, ((S)-1-(((31R,6S,9S,15S,19R,20aS)-6-((6-ethyl-1H-indol-3-yl)methyl)-9-(3-guanidinopropyl)-19-hydroxy-3-(((1s,4S)-4-hydroxycyclohexyl)methyl)-1,4,7,10,16-pentaoxoicosahydropyrrolo[1,2-a][1,4,7,10,13]pentaazacyclooctadecin-15-yl)amino)-1-oxo-3-phenylpropan-2-yl)glycine] | 29.7 | 234 | 
CC(=O)N[C@H]1C[C@H]2C(=O)N[C@H](C[C@H]3CC[C@@H](O)CC3)C(=O)N[C@@H](Cc3c[nH]c4ccccc34)C(=O)N[C@@H](CCCNC(=N)N)C(=O)NCCC[C@H](NC(=O)[C@H](Cc3ccccc3)NCC(=O)O)C(=O)N2C1 [Example 10, ((S)-1-(((3R,6S,9S,15S,19S,20aS)-6-((1H-indol-3-yl)methyl)-19-acetamido-9-(3-guanidinopropyl)-3-(((1s,4S)-4-hydroxycyclohexyl)methyl)-1,4,7,10,16-pentaoxoicosahydropyrrolo[1,2-a][1,4,7,10,13]pentaazacyclooctadecin-15-yl)amino)-1-oxo-3-phenylpropan-2-yl)glycine] | 2.1 | 11.7 | 
N=C(N)NCCC[C@@H]1NC(=O)[C@H](Cc2c[nH]c3ccccc23)NC(=O)[C@@H](C[C@H]2CC[C@@H](O)CC2)NC(=O)[C@@H]2C[C@@H](OCC(=O)O)CN2C(=O)[C@@H](NC(=O)[C@H](Cc2ccccc2)NCC(=O)O)CCCNC1=O [Example 2, 2-(((3R,6S,9S,15S,19R,20aS)-6-((1H-indol-3-yl)methyl)-15-((S)-2-((carboxymethyl)amino)-3-phenylpropanamido)-9-(3-guanidinopropyl)-3-(((1s,4S)-4-hydroxycyclohexyl)methyl)-1,4,7,10,16-pentaoxoicosahydropyrrolo[1,2-a][1,4,7,10,13]pentaazacyclooctadecin-19-yl)oxy)acetic Acid] | 3 | 28.8 | 
N=C(N)NCCC[C@@H]1NC(=O)[C@H](Cc2c[nH]c3ncccc23)NC(=O)[C@@H](C[C@H]2CC[C@@H](O)CC2)NC(=O)[C@@H]2C[C@@H](O)CN2C(=O)[C@@H](NC(=O)[C@H](Cc2ccccc2)NCC(=O)O)CCCNC1=O [Example 6, ((S)-1-(((3R,6S,9S,15S,19R,20aS)-6-((1H-pyrrolo[2,3-b]pyridin-3-yl)methyl)-9-(3-guanidinopropyl)-19-hydroxy-3-(((1s,4S)-4-hydroxycyclohexyl)methyl)-1,4,7,10,16-pentaoxoicosahydropyrrolo[1,2-a][1,4,7,10,13]pentaazacyclooctadecin-15-yl)amino)-1-oxo-3-phenylpropan-2-yl)glycine] | 68.1 | 460 | 
